The values that follow come from US7759510B2, “Platinum complexes and methods of use” (University of South Florida, priority 2003, dated 2010).

In this experiment the test system is A549 cells. As to the kind of experiment: MTT assay, percent survival of A549 cells. It is filed as cell-based. As to the method:
1. Prepare a suspension of A549 cells at 2×10^5 cells per mL in supplemented DMEM/F12 growth medium.
2. Plate 2×10^4 cells per well in a 96 well cell culture plate by adding 100 μL of stock suspension to each well.
3. For each platinum compound (already in solution), prepare a readily usable stock solution in DMEM/F12 medium.
4. For each compound generate triplicate trials of 0, 10, 20, 30, 40, 50, 60, and 70 μM concentration. This is achieved in situ by adding appropriate volumes of stock solution to each well along with the volume of untreated medium necessary to generate the desired concentration in a final volume of 200 μL.
5. Gently agitate plates to mix contents. Incubate at 37° C., 7% CO2 for 45 hours.
6. Add 20 μL of 5 mg/mL MTT solution (in PBS) to each well.
7. Gently agitate plates to mix contents and incubate an additional 3 hours to allow product development.
8. Remove plates from incubator and agitate to cause settling of formazan product.
9. Aspirate out liquid contents of each well using needle and syringe and discard.
10. Add 200 μL DMSO to each well to dissolve formazan product.
11. Agitate plates until all of the formazan product is in solution and no purple crystals remain on the bottom surface of the wells.
12. Read the absorbance of each well at […] using Varian software for Cary 50 UV-vis Spectrophotometer with fiber optic probe accessory.
(§1) MTT assays are used for the quantitative determination of cellular proliferation and activation and for the quantitation of in vitro tumor cell sensitivity to anti-cancer compounds. The assay is based on the cleavage of the yellow tetrazolium salt MTT into purple colored formazan by metabolically active cells. Solubilized formazan product can be photometrically quantitated using an ELISA plate reader. A decrease in the number of living cells results in a decrease in total metabolic activity which leads to a decrease in color formation. Platinum complexes of the present invention were tested in MTT assays using A549 cells to determine anti-cancer cell activity. […] FIGS. 1, 2, and 4 show percent survival versus platinum complex concentration in graphical form.
as §1, with “FIGS. 8, 9,” for “FIGS. 1, 2,”, “and 11” for “and 4”
For orientation: Tetrazolium assays rely on reduction of a dye to a coloured formazan, in cell work by metabolically active cells.

Read-outs that look alike come from different tables or passages of the source.

Take Safranin: the “Average Absorbance” value by setting is: (Table 9, A549, 10 μM) 0.4933; (Table 9, A549, 20 μM) 0.4394; (Table 9, A549, 30 μM) 0.2197; (Table 9, A549, 40 μM) 0.07453; (Table 9, A549, 50 μM) 0.05293; (Table 9, A549, 60 μM) 0.0432. Further, under “Table 9, A549, 70 μM”, the “Average Absorbance” value stood at 0.05447. Further, the “Percent Survival” value (Table 9, A549, 10 μM) is listed as 77.35%; the “Percent Survival” value (Table 9, A549, 20 μM) is 68.9%; the “Percent Survival” value (Table 9, A549, 30 μM) was 34.46%; the “Percent Survival” value (Table 9, A549, 40 μM) came out at 11.69%; the “Percent Survival” value (Table 9, A549, 50 μM) is reported as 8.301%; the “Percent Survival” value (Table 9, A549, 60 μM) is listed as 6.775%. The “Percent Survival” value (Table 9, A549, 70 μM) is given as 8.541%.

For Methylene blue, the “Average Absorbance” value by setting is: (Table 6, A549, 10 μM) 2.3750; (Table 6, A549, 20 μM) 2.2927; (Table 6, A549, 30 μM) 2.2510; (Table 6, A549, 40 μM) 1.5702; (Table 6, A549, 50 μM) 0.8542; (Table 6, A549, 60 μM) 1.1911. Moreover, the “Average Absorbance” value reads like this: (Table 6, A549, 70 μM) 0.9505; (Table 8, A549, 10 μM) 2.5299; (Table 8, A549, 20 μM) 2.1653; (Table 8, A549, 30 μM) 1.6536; (Table 8, A549, 40 μM) 0.7522; (Table 8, A549, 50 μM) 0.6302. Further, the “Average Absorbance” value by setting is: (Table 8, A549, 60 μM) 0.7701; (Table 8, A549, 70 μM) 0.7481. The “Percent Survival” value reads like this: (Table 6, A549, 10 μM) 100.5887%; (Table 6, A549, 20 μM) 97.1030%; (Table 6, A549, 30 μM) 95.3369%; (Table 6, A549, 40 μM) 66.5029%; (Table 6, A549, 50 μM) 36.1781%; (Table 6, A549, 60 μM) 50.4468%. Also, the “Percent Survival” value (Table 6, A549, 70 μM) is on record as 40.2567%; the “Percent Survival” value (Table 8, A549, 10 μM) came out at 103.5613%; the “Percent Survival” value (Table 8, A549, 20 μM) amounted to 88.6365%; the “Percent Survival” value (Table 8, A549, 30 μM) was 67.6900%; the “Percent Survival” value (Table 8, A549, 40 μM) is on record as 30.7913%; the “Percent Survival” value (Table 8, A549, 50 μM) is listed as 25.7972%. Moreover, the “Percent Survival” value (Table 8, A549, 60 μM) was found to be 31.5240% and the “Percent Survival” value (Table 8, A549, 70 μM) came out at 30.6234%. Further, where the note is “Table 7, A549, linear trend from percent survival vs. concentration data, read-out: Calculated IC 50 (uM concentration)”, the IC50 is 56.4 µM.

On to `NC(=O)c1ccc(N)nc1` [6-Aminonicotinamide], for which the IC50 (Homo sapiens, A549, read-out: Calculated IC 50 (uM concentration)) is 53.1 µM. The “Average Absorbance” value by setting is: (Table 6, A549, 10 μM) 2.3742; (Table 6, A549, 20 μM) 2.4321; (Table 6, A549, 30 μM) 2.2814; (Table 6, A549, 40 μM) 1.7213; (Table 6, A549, 50 μM) 0.8618; (Table 6, A549, 60 μM) 0.7739. The “Average Absorbance” value worked out at 0.8536 (Table 6, A549, 70 μM); 2.4711 (Table 8, A549, 10 μM); 2.4672 (Table 8, A549, 20 μM); 1.9896 (Table 8, A549, 30 μM); 1.0963 (Table 8, A549, 40 μM); 0.6485 (Table 8, A549, 50 μM). The “Average Absorbance” value worked out at 0.5811 (Table 8, A549, 60 μM) and 0.6294 (Table 8, A549, 70 μM). For the same molecule, the “Percent Survival” value amounted to 100.5548% (Table 6, A549, 10 μM); 103.0071% (Table 6, A549, 20 μM); 96.6245% (Table 6, A549, 30 μM); 72.9025% (Table 6, A549, 40 μM); 36.4999% (Table 6, A549, 50 μM); 32.7771% (Table 6, A549, 60 μM). In addition, the “Percent Survival” value is reported as 36.1526% (Table 6, A549, 70 μM); 101.1544% (Table 8, A549, 10 μM); 100.9947% (Table 8, A549, 20 μM); 81.4442% (Table 8, A549, 30 μM); 44.8770% (Table 8, A549, 40 μM); 26.5463% (Table 8, A549, 50 μM). The “Percent Survival” value is recorded as 23.7873% (Table 8, A549, 60 μM) and 25.7645% (Table 8, A549, 70 μM).

Turning to `CC(C)(C(=O)O)C(O)(C(=O)O)C(C)(C)C(=O)[O][Pt]([NH2])([NH2])([Cl])([Cl])[N+](=O)[O-]` (centres unmarked) [CPA-31], the “Average Absorbance” value by setting is: (Table 1, A549, 10 μM) 2.4274; (Table 1, A549, 20 μM) 2.3495; (Table 1, A549, 30 μM) 2.3778; (Table 3, A549, 10 μM) 2.5294; (Table 3, A549, 20 μM) 2.3875; (Table 3, A549, 30 μM) 1.7978. In addition, the “Average Absorbance” value (Table 3, A549, 40 μM) came out at 0.8196; the “Average Absorbance” value (Table 3, A549, 50 μM) is reported as 0.6049; the “Average Absorbance” value (Table 3, A549, 60 μM) is on record as 0.6067; the “Average Absorbance” value (Table 3, A549, 70 μM) came to 0.6228. The “Percent Survival” value (Table 1, A549, 10 μM) turned out to be 102.8080%; the “Percent Survival” value (Table 1, A549, 20 μM) came out at 99.5087%; the “Percent Survival” value (Table 1, A549, 30 μM) is listed as 100.7073%; the “Percent Survival” value (Table 3, A549, 10 μM) was found to be 103.5409%; the “Percent Survival” value (Table 3, A549, 20 μM) was found to be 97.7322%; the “Percent Survival” value (Table 3, A549, 30 μM) amounted to 73.5929%. Also, the “Percent Survival” value by setting is: (Table 3, A549, 40 μM) 33.5503%; (Table 3, A549, 50 μM) 24.7616%; (Table 3, A549, 60 μM) 24.8352%; (Table 3, A549, 70 μM) 25.4943%. The IC50 (Table 2, A549, extrapolated from incomplete data (10-40 uM; CPA-31 10-30 μM), outside the measured range, read-out: Calculated IC 50 (uM concentration)) was 506 µM.

Regarding `CC(=O)N[C@H]1C(O)O[C@H](CO)[C@@H](O)[C@@H]1O` (some centres unmarked) [N-acetyl glucosamine], the “Average Absorbance” value runs as follows: (Table 9, A549, 10 μM) 0.6179; (Table 9, A549, 20 μM) 0.378; (Table 9, A549, 30 μM) 0.1735; (Table 9, A549, 40 μM) 0.02397; (Table 9, A549, 50 μM) 0.0397; (Table 9, A549, 60 μM) 0.05523. For the setting “Table 9, A549, 70 μM”, the “Average Absorbance” value is 0.01897. The “Percent Survival” value by setting is: (Table 9, A549, 10 μM) 96.89%; (Table 9, A549, 20 μM) 59.27%; (Table 9, A549, 30 μM) 27.21%; (Table 9, A549, 40 μM) 3.758%; (Table 9, A549, 50 μM) 6.226%; (Table 9, A549, 60 μM) 8.662%. The “Percent Survival” value (Table 9, A549, 70 μM) came to 2.974%.
